Experimental data taken from ChEMBL document CHEMBL1156099, “Pyrazolo[1,5-a]pyrimidine-based inhibitors of HCV polymerase” (Bioorg Med Chem Lett, 2009).
Calls of active or inactive are those of the source. The rule behind the calls is not given here.

Assays:
[1] = Inhibition of HCV recombinant NS5B Cdelta21 RdRp expressed in Escherichia coli assessed as [3H]GTP incorporation after 3 hrs by scintillation proximity assay-based RNA polymerase assay; set-up: species or system Hepacivirus hominis
[2] = test system: Hepatitis C virus; assay: Antiviral activity against HCV infected in human hepatoma cells by RNA replicon assay; type: functional, organism-based; conditions: Hepacivirus hominis

| Compound | IC50 ([1]; read-out: IC50) | Activity [2] | IC50 [1] |
| --- | --- | --- | --- |
| Fc1ccc(-c2cnc3c(-c4nnn[nH]4)cnn3c2C2CCCCC2)cc1F | 700 nM | – | – |
| COc1cccc(COc2ccc(-c3cnc4c(-c5nnn[nH]5)cnn4c3C3CCCCC3)cc2)c1 | 600 nM | – | – |
| O=C(O)c1cc2nc(-c3ccc(Cl)cc3)cc(-c3ccc(Oc4ccccc4)cc3)n2n1 | 6000 nM | – | – |
| NC(=O)[C@H](Cc1c[nH]c2ccccc12)NC(=O)c1cnn2c(C3CCCCC3)c(-c3ccc(OCc4ccccc4)cc3)cnc12 | 90 nM | – | – |
| O=C(O)c1ccc(COc2ccc(-c3cnc4c(-c5nnn[nH]5)cnn4c3C3CCCCC3)cc2)cc1 | 42 nM | – | – |
| O=C(N[C@@H](Cc1ccccc1)C(=O)O)c1cnn2c(C3CCCCC3)c(-c3ccc(F)cc3)cnc12 | 2000 nM | – | – |
| CC(C)CCc1c(-c2ccc(OCc3ccccc3)cc2)cnc2c(-c3nnn[nH]3)cnn12 | 4600 nM | – | – |
| O=C(N[C@@H](Cc1c[nH]c2ccccc12)C(=O)O)c1cnn2c(C3CCCCC3)c(-c3ccc(F)cc3)cnc12 | 20 nM | – | – |
| COc1cccc(Oc2ccc(-c3cnc4c(-c5nnn[nH]5)cnn4c3C3CCCCC3)cc2)c1 | 400 nM | – | – |
| c1ccc(COc2ccc(-c3cnc4c(-c5ncn[nH]5)cnn4c3C3CCCCC3)cc2)cc1 | 5700 nM | – | – |
| NCCCC[C@H](NC(=O)c1cnn2c(C3CCCCC3)c(-c3ccc(F)cc3)cnc12)C(=O)O | 480 nM | – | – |
| O=C(N[C@@H](Cc1ccc(O)cc1)C(=O)O)c1cnn2c(C3CCCCC3)c(-c3ccc(F)cc3)cnc12 | 20 nM | – | – |
| O=C(O)c1cnn2c(C3CCCCC3)c(-c3ccc(F)cc3)cnc12 | 930 nM | Active | – |
| CS(=O)(=O)c1cccc(Oc2ccc(-c3cnc4c(-c5nnn[nH]5)cnn4c3C3CCCCC3)cc2)c1 | 200 nM | – | – |
| CS(=O)(=O)NC(=O)c1cnn2c(C3CCCCC3)c(-c3ccc(OCc4ccccc4)cc3)cnc12 | 1600 nM | – | – |
| O=C(NO)c1cnn2c(C3CCCCC3)c(-c3ccc(OCc4ccccc4)cc3)cnc12 | 1900 nM | – | – |
| NC(=O)c1cnn2c(C3CCCCC3)c(-c3ccc(OCc4ccccc4)cc3)cnc12 | – | – | Not Active |
| CC(C)C[C@H](NC(=O)c1cnn2c(C3CCCCC3)c(-c3ccc(F)cc3)cnc12)C(=O)O | 290 nM | – | – |
| OCc1cnn2c(C3CCCCC3)c(-c3ccc(OCc4ccccc4)cc3)cnc12 | 12500 nM | – | – |
| CC(C)Cc1c(-c2ccc(OCc3ccccc3)cc2)cnc2c(-c3nnn[nH]3)cnn12 | 6000 nM | – | – |
| c1ccc(COc2ccc(-c3cnc4c(-c5nnn[nH]5)cnn4c3C3CC3)cc2)cc1 | – | – | Not Active |
| Cc1c(-c2ccc(OCc3ccccc3)cc2)cnc2c(-c3nnn[nH]3)cnn12 | 12500 nM | – | – |
| c1ccc(-c2ccc(-c3cnc4c(-c5nnn[nH]5)cnn4c3C3CCCCC3)cc2)cc1 | 2800 nM | – | – |

| Compound | IC50 ([1]; read-out: IC50) | Activity [2] | IC50 [1] |
| --- | --- | --- | --- |
| O=C(N[C@H](Cc1c[nH]c2ccccc12)C(=O)O)c1cnn2c(C3CCCCC3)c(-c3ccc(F)cc3)cnc12 | 450 nM | – | – |
| c1ccc(COc2ccc(-c3cnc4c(-c5nnn[nH]5)cnn4c3-c3ccccc3)cc2)cc1 | – | – | Not Active |
| c1ccc(COc2ccc(-c3cnc4c(-c5nnn[nH]5)cnn4c3C3CCOCC3)cc2)cc1 | 12000 nM | – | – |
| c1cc(COc2ccc(-c3cnc4c(-c5nnn[nH]5)cnn4c3C3CCCCC3)cc2)ccn1 | 710 nM | – | – |
| O=C(NS(=O)(=O)c1ccccc1)c1cnn2c(C3CCCCC3)c(-c3ccc(OCc4ccccc4)cc3)cnc12 | 760 nM | – | – |
| O=C(O)c1cnn2c(C3CCCCC3)c(-c3ccc(OCc4ccccc4)cc3)cnc12 | 590 nM | Active | – |
| COC(=O)c1ccc(COc2ccc(-c3cnc4c(-c5nnn[nH]5)cnn4c3C3CCCCC3)cc2)cc1 | 190 nM | – | – |
| c1ccc(COc2ccc(-c3cnc4c(-c5nnn[nH]5)cnn4c3C3CCSCC3)cc2)cc1 | 3400 nM | – | – |
| O=C(N[C@H](Cc1ccc(O)cc1)C(=O)O)c1cnn2c(C3CCCCC3)c(-c3ccc(F)cc3)cnc12 | 960 nM | – | – |
| O=S1(=O)CCC(c2c(-c3ccc(OCc4ccccc4)cc3)cnc3c(-c4nnn[nH]4)cnn23)CC1 | – | – | Not Active |
| c1ccc(Oc2ccc(-c3cnc4c(-c5nnn[nH]5)cnn4c3C3CCCCC3)cc2)cc1 | 400 nM | – | – |
| O=C(O)c1ccc2c(c1)nc(-c1ccoc1)n2C1CCCCC1 | 1600 nM | – | – |
| O=C(Nc1nnn[nH]1)c1cnn2c(C3CCCCC3)c(-c3ccc(OCc4ccccc4)cc3)cnc12 | 670 nM | – | – |
| c1cc(-c2cnc3c(-c4nnn[nH]4)cnn3c2C2CCCCC2)ccc1OC1CCCCC1 | 400 nM | – | – |
| COC(=O)c1cccc(COc2ccc(-c3cnc4c(-c5nnn[nH]5)cnn4c3C3CCCCC3)cc2)c1 | 220 nM | – | – |
| O=C(N[C@@H](Cc1c[nH]c2ccc(O)cc12)C(=O)O)c1cnn2c(C3CCCCC3)c(-c3ccc(F)cc3)cnc12 | 11 nM | – | – |
| c1ccc(COc2ccc(-c3cnc4c(-c5nnn[nH]5)cnn4c3C3CCCCC3)cc2)cc1 | 450 nM | Active | – |
| CS(=O)(=O)c1cccc(-c2ccc(-c3cnc4c(-c5nnn[nH]5)cnn4c3C3CCCCC3)cc2)c1 | 930 nM | – | – |
| FC(F)(F)c1cccc(COc2ccc(-c3cnc4c(-c5nnn[nH]5)cnn4c3C3CCCCC3)cc2)c1 | 400 nM | – | – |
| Cn1nnnc1-c1cnn2c(C3CCCCC3)c(-c3ccc(OCc4ccccc4)cc3)cnc12 | 50000 nM | – | – |
| NC(=O)[C@H](Cc1ccc(O)cc1)NC(=O)c1cnn2c(C3CCCCC3)c(-c3ccc(F)cc3)cnc12 | 24 nM | – | – |
| O=C(O)c1ccc2c(c1)nc(-c1ccc(OCc3ccccc3)cc1)n2C1CCCCC1 | 530 nM | – | – |
| CC(C)c1c(-c2ccc(OCc3ccccc3)cc2)cnc2c(-c3nnn[nH]3)cnn12 | 8600 nM | – | – |
